Assay results as given in PMC4300089, “Structure-Guided Design of Selective Epac1 and Epac2 Agonists” (PLoS Biology, 2015).

Target: T1, Epac2^Δ280 (Mus musculus, UniProt Q9EQZ6)
T1 construct: made in house
T1 sequence (Q9EQZ6 281-993 isoform Q9EQZ6-3): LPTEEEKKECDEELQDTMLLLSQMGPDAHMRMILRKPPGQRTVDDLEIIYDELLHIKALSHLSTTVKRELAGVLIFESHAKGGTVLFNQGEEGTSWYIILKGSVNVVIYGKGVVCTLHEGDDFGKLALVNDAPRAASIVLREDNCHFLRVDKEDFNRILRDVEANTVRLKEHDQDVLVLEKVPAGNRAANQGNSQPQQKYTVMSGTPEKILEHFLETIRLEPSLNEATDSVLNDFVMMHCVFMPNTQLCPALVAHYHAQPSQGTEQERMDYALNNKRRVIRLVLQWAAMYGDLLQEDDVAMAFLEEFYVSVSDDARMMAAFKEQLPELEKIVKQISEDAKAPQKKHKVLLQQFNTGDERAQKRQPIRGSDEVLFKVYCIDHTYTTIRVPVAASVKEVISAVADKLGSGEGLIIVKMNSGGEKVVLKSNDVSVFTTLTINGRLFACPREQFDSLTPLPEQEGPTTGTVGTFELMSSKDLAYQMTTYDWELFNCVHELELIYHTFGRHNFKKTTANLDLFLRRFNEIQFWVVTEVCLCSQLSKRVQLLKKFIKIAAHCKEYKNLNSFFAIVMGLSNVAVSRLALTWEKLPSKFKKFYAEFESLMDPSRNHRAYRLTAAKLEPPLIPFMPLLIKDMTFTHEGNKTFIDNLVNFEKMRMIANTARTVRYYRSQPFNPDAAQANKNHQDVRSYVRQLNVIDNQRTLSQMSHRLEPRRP
Experiment: Epac activation assay (Rap1B•mGDP fluorescence nucleotide exchange), Epac2^Δ280
Format: biochemical
Conditions: Epac2^Δ280; for Rel. kmax: maximal activity relative to cAMP
Procedure: Murine Epac2 was used as all previous structural studies were performed with it.
The activity of Epac was determined by a fluorescence assay. […] The fluorescence intensity of Rap1B•mGDP is approximately twice that of free mGDP, and thus, nucleotide exchange can be observed as a decay in fluorescence upon the addition of excess unlabeled GDP.

| Compound | AC50 [nM] | Rel. kmax |
| --- | --- | --- |
| O=P1(O)OC[C@H]2O[C@@H](n3cnc4c(Nc5ccccc5)ncnc43)[C@H](O)[C@@H]2O1 [N-003, N^6-Phe-cAMP] | 300 | 0.6 |
| CCCCO[C@@H]1[C@@H]2OP(=O)(O)OC[C@H]2O[C@H]1n1cnc2c(N)ncnc21 [Z-006, 2′-O-Bu-cAMP] | 120000 | 1.0 |
| COc1nc2c(N)ncnc2n1[C@@H]1O[C@@H]2COP(=O)(O)O[C@H]2[C@H]1O [L-022, 8-MeO-cAMP] | 600 | 2.0 |
| [N-]=[N+]=Nc1nc2c(N)ncnc2n1[C@@H]1O[C@@H]2COP(=O)(O)O[C@H]2[C@H]1O [L-004, 8-N3-cAMP] | 200 | 0.7 |
| NCCCCCCNc1nc2c(N)ncnc2n1[C@@H]1O[C@@H]2COP(=O)(O)O[C@H]2[C@H]1O [L-010, 8-AHA-cAMP] | 1200 | 1.8 |
| Nc1ncnc2c1nc(Sc1ccc(O)cc1)n2[C@@H]1O[C@@H]2CO[P@](O)(=S)O[C@H]2[C@H]1O [S-200, Sp-8-pOHPT-cAMPS] | 70 | 1.2 |
| C[C@H](O)CNc1nc2c(N)ncnc2n1[C@@H]1O[C@@H]2COP(=O)(O)O[C@H]2[C@H]1O [L-012, 8-(S-2-OHPrA)-cAMP] | 8000 | 0.5 |
| CSc1nc2c(N)ncnc2n1[C@@H]1O[C@@H]2CO[P@](O)(=S)O[C@H]2[C@H]1F [S-170, Sp-8-MeT-2′-F-cAMPS] | 6900 | 2.8 |
| CN(C)c1nc2c(N)ncnc2n1[C@@H]1O[C@@H]2COP(=O)(O)O[C@H]2[C@H]1O [L-015, 8-DMeA-cAMP] | 1400 | 3.6 |
| Sp-8-ADOA-cAMPS [S-060] | 6200 | 2.1 |
| Nc1ncnc2c1nc(SCc1ccccc1)n2[C@@H]1O[C@@H]2COP(=O)(O)O[C@H]2[C@H]1F [D-011, 8-BnT-2′-F-cAMP] | 2900 | 1.6 |
| Nc1ncnc2c1ncn2[C@@H]1O[C@@H]2COP(O)(=S)O[C@H]2[C@H]1O (stereo partly drawn) [R-000, Rp-cAMPS] | 10000 | 0.2 |
| CC(C)(C)c1ccc(CSc2nc3c(N)ncnc3n2[C@@H]2O[C@@H]3CO[P@](O)(=S)O[C@H]3[C@H]2O)cc1 [S-240, Sp-8-ptBuBnT-cAMPS] | 100 | 5.0 |
| CC(C)Nc1nc2c(N)ncnc2n1[C@@H]1O[C@@H]2CO[P@](O)(=S)O[C@H]2[C@H]1O [S-050, Sp-8-iPrA-cAMPS] | 9000 | 1.4 |
| C=CCNc1nc2c(N)ncnc2n1[C@@H]1O[C@@H]2COP(=O)(O)O[C@H]2[C@H]1O [L-011, 8-AllA-cAMP] | 1900 | 1.5 |
| CCNc1nc2c(N)ncnc2n1[C@@H]1O[C@@H]2CO[P@](O)(=S)O[C@H]2[C@H]1O [S-040, Sp-8-EA-cAMPS] | 1900 | 5.4 |
| CSc1nc2c(N)ncnc2n1[C@@H]1O[C@@H]2CO[P@](O)(=S)O[C@H]2[C@H]1O [S-160, Sp-8-MeT-cAMPS] | 300 | 7.4 |
| CNc1nc2c(N)ncnc2n1[C@@H]1O[C@@H]2CO[P@](O)(=S)O[C@H]2[C@H]1F [S-032, Sp-8-MeA-2′-F-cAMPS] | 9500 | 3.9 |
| Nc1ncnc2c1nc(SCc1ccc(Cl)cc1)n2[C@@H]1O[C@@H]2CO[P@](O)(=S)O[C@H]2[C@H]1O [S-260, Sp-8-pCBnT-cAMPS] | 80 | 4.3 |
| Nc1ncnc2c1nc(NCCO)n2[C@@H]1O[C@@H]2COP(=O)(O)O[C@H]2[C@H]1O [L-007, 8-OHEA-cAMP] | 2600 | 1.0 |
| NCCNc1nc2c(N)ncnc2n1[C@@H]1O[C@@H]2COP(=O)(O)O[C@H]2[C@H]1O [L-006, 8-AEA-cAMP] | 1600 | 0.5 |
| CCCCCCNc1nc2c(N)ncnc2n1[C@@H]1O[C@@H]2COP(=O)(O)OC2[C@@H]1O (stereo partly drawn) [L-009, 8-HA-cAMP] | 2500 | 2.0 |
| Nc1ncnc2c1nc(N1CCOCC1)n2[C@@H]1O[C@@H]2COP(=O)(O)O[C@H]2[C@H]1O [L-020, 8-Morph-cAMP] | 18000 | 3.8 |
| Nc1ncnc2c1nc(SCc1cccc([N+](=O)[O-])c1)n2[C@@H]1O[C@@H]2CO[P@](O)(=S)O[C@H]2[C@H]1O [S-290, Sp-8-mNBnT-cAMPS] | 160 | 4.3 |
